Results published in article PMC4077824, “Conserved Prosegment Residues Stabilize a Late-Stage Folding Transition State of Pepsin Independently of Ground States” (PLoS ONE, 2014).
Where “and” joins values, the source holds several entries; their conditions need not be identical. Equal values may be shown once. Entries after “also recorded” stand apart in the source; their conditions may differ. Where no end group is shown, it is not given here.

Tests used:
refolded pepsin (Rp) [1] = target: T1, refolded pepsin (Rp) (Sus scrofa, UniProt P00791); test: PS-catalyzed folding of Rp to Np (recovery of Np activity); assay type: biochemical, porcine; conditions: for k f (PS-catalyzed folding rate constant): 1 µM Rp, 30 µM PS, pH 5.3 (20 mM acetic acid/NaOH, 100 mM NaCl), Np activity assayed at pH 1.2, 25°C with KPAEFF(NO2)AL, monoexponential fit, mean ± SD from non-linear curve fitting, 3-5 measurements; for k f (PS-catalyzed folding rate constant) / ΔΔG^‡ (change in folding activation energy upon mutation): 15°C; for ΔΔG^‡ (change in folding activation energy upon mutation): from k f, pH 5.3, relative to WT, ± SD by propagation of errors; for effect on rate of PS-catalyzed folding (in words): pH 5.3, 15°C, compared with PSwt
T1 construct: Only the R13 and K36 side-chains of the PS form hydrogen bonds with the mature pepsin domain; purchased Sigma (St. Louis, MO, USA)
T1 sequence (P00791 60-385): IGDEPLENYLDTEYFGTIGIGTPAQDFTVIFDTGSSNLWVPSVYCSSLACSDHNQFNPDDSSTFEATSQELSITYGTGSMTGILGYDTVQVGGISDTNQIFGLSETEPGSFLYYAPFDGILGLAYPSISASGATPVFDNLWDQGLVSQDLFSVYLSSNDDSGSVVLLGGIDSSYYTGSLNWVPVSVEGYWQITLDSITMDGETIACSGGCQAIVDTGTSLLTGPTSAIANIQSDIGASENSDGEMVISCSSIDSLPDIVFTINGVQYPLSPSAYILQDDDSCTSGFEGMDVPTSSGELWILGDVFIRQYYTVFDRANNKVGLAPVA
Procedure: PS-catalyzed folding of Rp to Np
PS-catalyzed folding was carried out by combining 1 µM Rp and 30 µM PS, in a volume of 100 µl, at pH 5.3 (20 mM acetic acid/NaOH with 100 mM NaCl) and 15°C. Aliquots were taken at several time intervals, diluted 20-fold in 50 mM phosphoric acid buffer, pH 1.2, incubated for 5 min at 25°C and assayed for Np activity using the KPAEFF(NO2)AL substrate. The recovery of Np activity with time, t, was fit with a monoexponential function (y = a – bexp(–k f t)) to obtain the PS-catalyzed folding rate constant, k f. Under these conditions, PS binding to Rp reached equilibrium within the dead-time of mixing (<8 sec), as judged by Trp-fluorescence.
(§1) The change in stability of the folding transition state upon mutation was calculated using [drawing 3] (3) where k f, wt and k f, mut are the PS-catalyzed folding rate constants of the wild-type and mutant PS peptides. The change in equilibrium stability of PS-Np relative to PS-Rp upon mutation of the PS (ΔΔGPS(Np-Rp)) was determined as the difference between the changes in binding energies, using [drawing 4] (4) and [drawing 5] (5)
Temperature dependence of PS-catalyzed folding
PS-catalyzed folding could be measured only up to 15 °C for PSwt, as the reaction was too fast at higher temperatures. […] Given the linear temperature dependence it could be reasonably assumed that changes in activation energies (mutant – wild-type) would be unchanged from 15 °C to 20 °C, and so could be compared directly with changes in binding energies (wild-type – mutant) that were determined at 20 °C.

refolded pepsin (Rp) [2] = target: T1, refolded pepsin (Rp); test: PS binding to Rp (Trp-fluorescence); set-up: species or system porcine; conditions: for Kd: 0.6-1.2 µM Rp, 20 mM acetic acid/NaOH pH 5.3 without added NaCl, ≥10 min, Trp-fluorescence ex 295 nm, em 315 nm, mean ± SD from non-linear curve fitting, 3-5 measurements, read-out: K d (PS-Rp dissociation constant); for Kd / ΔΔGPS-Rp (change in PS-Rp binding energy upon mutation): 20°C; for ΔΔGPS-Rp (change in PS-Rp binding energy upon mutation): from K d, pH 5.3, relative to WT, ± SD by propagation of errors
Procedure: The change in intrinsic tryptophan fluorescence of pepsin was used to measure the binding of PS to Rp and to determine the dissociation constant, K d. Rp solutions were diluted to between 0.6 and 1.2 µM in 20 mM acetic acid/NaOH buffer, pH 5.3, and mixed with various amounts of PS. After incubating the samples at 20°C for ≥10 minutes, the intrinsic tryptophan fluorescence was measured using a PTI spectrofluorophotometer (Photon Technology International, Inc., Birmingham NJ, USA), with excitation at 295 nm and emission measured at 315 nm. The change in fluorescence, ΔF i, at each PS concentration, [PS], was normalized relative to the maximum change, ΔF max, and fit according to [drawing 1] (1) where [Rp] is the total concentration of pepsin.
PS binding to Rp was measured in buffer without added 100 mM NaCl in order to obtain more accurate measurements of K d, owing to a larger change in signal in the absence of salt. Additionally, without added 100 mM NaCl it was possible to isolate the PS-Rp binding step from the catalyzed folding step thereby improving the determination of K d.
as §1
(§2) Here, ΔΔGbind refers to either ΔΔGPS-Rp, determined from K d values, or ΔΔGPS-Np, determined from K i values. The Φ-value for each mutant corresponds to eq 3 divided by eq 5. Additional details are included in the supporting information section (Text S1).

native pepsin (Np) = target: T2, native pepsin (Np) (Sus scrofa, UniProt P00791); test: PS binding to Np (competitive inhibition of KPAEFF(NO2)AL hydrolysis); assay type: biochemical, porcine; conditions: for Ki: 10 nM Np, 20 mM acetic acid/NaOH pH 5.3, 100 mM NaCl, 5 min incubation, substrate KPAEFF(NO2)AL 0.1 mM, absorbance 300 nm, competitive model, mean ± SD from non-linear curve fitting, 3-5 measurements, read-out: K i (PS-Np inhibition constant); for Ki / ΔΔGPS-Np (change in PS-Np binding energy upon mutation): 20°C; for ΔΔGPS-Np (change in PS-Np binding energy upon mutation): from K i, pH 5.3, relative to WT, ± SD by propagation of errors; for effect on affinity for Np / PS-Np stability (in words): pH 5.3, 20°C, PS inhibition of Np, compared with PSwt
T2 construct: Only the R13 and K36 side-chains of the PS form hydrogen bonds with the mature pepsin domain; purchased Sigma (St. Louis, MO, USA)
T2 sequence (P00791 60-385): as above
Procedure: PS binding to Np was determined by using the PS as a competitive inhibitor and measuring the inhibition constant, K i. Hydrolysis of the KPAEFF(NO2)AL substrate was measured by following the decrease in absorbance at 300 nm using a Biochrom Ultrospec 3100pro UV-Vis spectrophotometer (Biochrom Ltd., Cambridge, England) in 20 mM acetic acid/NaOH buffer, pH 5.3, containing 100 mM NaCl. Np samples were diluted to 10 nM and incubated with PS for 5 min at 20°C and assayed for activity. The reaction rates were normalized to the activity in the absence of PS and the data fit using the competitive inhibitor form of the Michaelis-Menten equation [drawing 2] (2) where v0 is the initial reaction rate, V max is the maximum reaction rate, [S] is the substrate concentration (fixed at 0.1 mM), [I] is the inhibitor concentration, and K M is the Michaelis constant.
as §1, §2

[3] = system: pepsin (PS-Rp, PS-TS, PS-Np complexes); test: Φ-value analysis from PS-catalyzed folding and binding constants; set-up: species or system porcine; conditions: ± SD by propagation of errors; for Φ: ratio ΔΔG^‡/ΔΔGPS(Np-Rp); for ΔΔGPS(Np-Rp) (change in equilibrium stability of PS-Np relative to PS-Rp): ΔΔGPS-Np minus ΔΔGPS-Rp
Procedure: Calculation of Φ-values from PS-catalyzed folding and binding constants
as §1, §2
As outlined below, ∆Gbind values are used to calculate ∆∆GPS(Np-Rp), which is the change in the equilibrium free energy difference between PS-Np and PS-Rp upon mutation of the PS (for a diagram of the folding reaction, see Fig S1)
ΔΔGbind can refer to either ∆∆G^PS-Np(wt-mut) or ∆∆G^PS-Rp(wt-mut). Also, we can write ∆Gbind in terms of its components
where ∆GPS, ∆Gpepsin and ∆Gsolvent refer to the change in free energy of the PS, pepsin and the solvent upon PS binding to pepsin, respectively. Combining equations S1 and S2 gives
The contribution of each component to ∆∆Gbind will depend on the particular mutation (e.g., nature of substitution, location within folded structure, solvent accessibility). This is the general case for protein engineering analysis, in which the effects of mutations on changes in equilibrium and activation energies are the result of many individual interaction energy terms, including solvent terms, as previously explained in detail [Fersht AR, Matouschek A, Serrano L (1992) The folding of an enzyme I. Theory of protein engineering analysis of stability and pathway of protein folding. J Mol Biol 224: 771‒782]. Most importantly, there is no requirement to separate ΔΔGbind into its components in order to proceed with analysis as we are interested in the overall change in equilibrium stability of the PS-pepsin complex (∆∆GPS(Np-Rp))
This bimolecular approach to Φ-value analysis of protein folding is qualitatively identical to Φ-value analysis as it was originally applied to the study of enzyme catalysis. As outlined previously [Fersht AR], changes in the free energy of enzyme (E) binding to substrate (S) or product (P) are used to determine the change in free energy difference between E-P and E-S upon mutation, ∆∆G^EP-ES(wt-mut), where
As these are at the scale of global energy terms, equations S4 and S5 are equivalent and PS-catalyzed folding can be treated similarly as enzyme catalysis, in which the PS is the foldase and the denatured and natively folded protein are the substrate and product, respectively. However, protein folding reactions are more complicated to interpret at the level of individual interaction energy terms, which are more numerous [Fersht AR].
Changes in the binding energies between PS-Rp and PS-Np upon PS mutation can then be used to determine Φ-values with the following considerations:
1. Free PS is unstructured (see Fig S6), so Ala mutations are expected to have a negligible effect on the stability and conformation of free PS.
2. Changes in binding and folding upon mutation can be localized to the loss of interactions in the immediate vicinity of the truncation mutation (i.e., larger residue mutated to Ala), and not due to gross conformational changes of the PS or changes in the binding/folding mechanism (consider as strong evidence that all of the mutant PS’s readily catalyze folding to the native, active form).
3. Changes in PS-Rp and PS-Np binding energies upon mutation (∆∆G^PS-Np(wt-mut) and ∆∆G^PS-Rp(wt-mut)) are measured directly, while the change in the PS-TS binding energy (∆∆G^PS-TS(wt-mut)) is the sum of ∆∆G^PS-Rp(wt-mut) and ∆∆G^‡(wt-mut).
4. Φ-values are calculated using […]

pepsin = conditions: native state relative to an intermediate state; ref [7]; cited from earlier work
Text: General thermodynamic and kinetic features of protein folding are known, such as that the natively folded conformation of a protein is thermodynamically stabilized and that there is a relationship between topology and folding rate, which holds for both two-state and multi-state folding proteins, [3]. However, zymogen-derived proteins which require a prosegment (PS) domain to catalyze folding, such as the serine peptidases αLP [4], SGPB [5], and subtilisin [6], and the aspartic peptidase pepsin [7], deviate from the common thermodynamic and kinetic trends in protein foldin ... || Pepsin, which is derived from its zymogen pepsinogen, folds to a thermodynamically stable yet non-native form (termed refolded pepsin, Rp) upon removal from denaturing conditions. […] In the case of pepsin, Rp was characterized by a ΔG unf of 5.8 kcal/mol, a 10% increase in unordered secondary structure and identical tertiary structure to Np (both yield R g ∼20 Å).

[4] = pH 5.3, 20°C, compared with PSwt

Substance | k f (PS-catalyzed folding rate constant) (refolded pepsin (Rp) [1]) | ΔΔG^‡ (change in folding activation energy upon mutation) (refolded pepsin (Rp) [1]) | Kd (refolded pepsin (Rp) [2]) | ΔΔGPS-Rp (change in PS-Rp binding energy upon mutation) (refolded pepsin (Rp) [2]) | effect on affinity for Rp / PS-Rp stability (in words) (refolded pepsin (Rp) [2]; [4]) | Ki (native pepsin (Np)) | ΔΔGPS-Np (change in PS-Np binding energy upon mutation) (native pepsin (Np)) | effect on affinity for Np / PS-Np stability (in words) (native pepsin (Np)) | Φ [3] | ΔΔGPS(Np-Rp) (change in equilibrium stability of PS-Np relative to PS-Rp) [3] | effect on rate of PS-catalyzed folding (in words) (refolded pepsin (Rp) [1]) | reduction in binding affinity for Rp (refolded pepsin (Rp) [2]; [4]) | ΔG N-I (pepsin)
LVKVPLVRKKSLRQNLIKNGKLKDFLKTHKHNPASAYFPEAAAL [K36A] | 0.28 ± 0.03 min⁻¹ | 0.94 ± 0.15 kcal/mol | 720 ± 140 nM | 0.50 ± 0.13 kcal/mol | nearly equally destabilizing to PS-Rp and PS-Np | 113 ± 20.3 nM | 0.33 ± 0.15 kcal/mol | nearly equally destabilizing to PS-Rp and PS-Np | – | – | – | – | –
LVKVPLVRKKSLRQNLIKNGKLKDALKTHKHNPASKYFPEAAAL [F25A] | 0.26 ± 0.04 min⁻¹ | 0.96 ± 0.17 kcal/mol | 250 ± 30 nM | -0.12 ± 0.08 kcal/mol | negligible effect on PS-Rp binding | 230 ± 29.1 nM | 0.74 ± 0.13 kcal/mol | – | 1.1 and 1.1±0.3 | 0.86 ± 0.15 kcal/mol | – | – | –
LVKVPAVRKKSLRQNLIKNGKLKDFLKTHKHNPASKYFPEAAAL [L6A] | 0.13 ± 0.01 min⁻¹ | 1.36 ± 0.15 kcal/mol | 640 ± 90 nM | 0.43 ± 0.10 kcal/mol | – | 193 ± 38.8 nM | 0.64 ± 0.16 kcal/mol | – | – | – | slowest folding rate | – | –
LVKVPLVRKKSLAQNLIKNGKLKDFLKTHKHNPASKYFPEAAAL [R13A] | 0.24 ± 0.02 min⁻¹ | 1.02 ± 0.15 kcal/mol | 1960 ± 290 nM | 1.08 ± 0.10 kcal/mol | destabilized both the PS-Np and PS-Rp complexes | 382 ± 37.2 nM | 1.03 ± 0.12 kcal/mol | largest reduction in affinities for Np; also recorded: destabilized both the PS-Np and PS-Rp complexes | – | – | – | 7 fold | –
LVKVPLVRKKALRQNLIKNGKLKDFLKTHKHNPASKYFPEAAAL [S11A] | 0.18 ± 0.02 min⁻¹ | 1.18 ± 0.15 kcal/mol | 680 ± 70 nM | 0.47 ± 0.08 kcal/mol | – | 270 ± 31.5 nM | 0.83 ± 0.12 kcal/mol | – | 3.2±1.4 | 0.36 ± 0.15 kcal/mol | a burst-phase in the folding kinetics was noticeable | – | –
pepsin: Porcine pepsin A (EC 3.4.23.1); native pepsin (Np) | – | – | – | – | – | – | – | – | – | – | – | – | -0.1 kcal/mol
